Reference: publication PMC10482975 (Nature Communications, 2023)
Where a chain is given by its changes, count along the chain named. Like-named read-outs stand apart in the source and are kept apart here.

How the values were obtained:
M1 mAChR WT = target: T1, M1 mAChR WT (Homo sapiens, UniProt P11229); format: binding
T1 construct: expressed in transfected cells
T1 sequence (P11229 1-460): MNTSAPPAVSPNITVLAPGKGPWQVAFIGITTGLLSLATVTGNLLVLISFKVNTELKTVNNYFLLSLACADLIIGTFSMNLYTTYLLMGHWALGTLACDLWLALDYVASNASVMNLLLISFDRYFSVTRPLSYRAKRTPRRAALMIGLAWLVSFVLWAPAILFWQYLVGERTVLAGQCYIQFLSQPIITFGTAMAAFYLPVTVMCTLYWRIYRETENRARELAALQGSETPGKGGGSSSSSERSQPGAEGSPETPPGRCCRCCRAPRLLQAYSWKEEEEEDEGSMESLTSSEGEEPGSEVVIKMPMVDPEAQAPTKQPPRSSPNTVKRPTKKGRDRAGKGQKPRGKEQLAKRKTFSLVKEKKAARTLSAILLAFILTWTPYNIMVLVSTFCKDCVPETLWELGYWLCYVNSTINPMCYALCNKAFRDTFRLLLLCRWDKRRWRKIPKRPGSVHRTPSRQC
Description: (§1) Flp-In Chinese hamster ovary (CHO) (Thermo Fisher Scientific) cells stably expressing mAChR WTs or mutant constructs were cultured in Dulbecco’s modified Eagle’s medium (DMEM, Invitrogen) containing 5% foetal bovine serum (FBS; ThermoTrace) and […] of hygromycin (Roche) in a humidified incubator (37 °C, 5% CO2). Upon reaching confluence, media was removed, cells were washed with phosphate buffered saline (PBS) and harvested from tissue culture flasks using versene (PBS with 0.2 g EDTA). Cells were then pelleted through centrifugation at 350 × g for three minutes followed by resuspension in DMEM + 5% FBS. Cells were then either plated for an assay or reseeded into a tissue culture flask.

M4 mAChR Y92A = target: T2, M4 mAChR Y92A (Homo sapiens, UniProt P08173, Y92A); test: [3H]-NMS radioligand dissociation binding, M4 mAChR Y92A; set-up: [3H]-NMS binding remaining vs Total Binding, MEAN: unit not given here; conditions: for [3H]-NMS binding remaining vs Total Binding, MEAN: M4 Y92A mAChR
T2 construct: expressed in transfected cells
T2 sequence (P08173 1-479 Y92A): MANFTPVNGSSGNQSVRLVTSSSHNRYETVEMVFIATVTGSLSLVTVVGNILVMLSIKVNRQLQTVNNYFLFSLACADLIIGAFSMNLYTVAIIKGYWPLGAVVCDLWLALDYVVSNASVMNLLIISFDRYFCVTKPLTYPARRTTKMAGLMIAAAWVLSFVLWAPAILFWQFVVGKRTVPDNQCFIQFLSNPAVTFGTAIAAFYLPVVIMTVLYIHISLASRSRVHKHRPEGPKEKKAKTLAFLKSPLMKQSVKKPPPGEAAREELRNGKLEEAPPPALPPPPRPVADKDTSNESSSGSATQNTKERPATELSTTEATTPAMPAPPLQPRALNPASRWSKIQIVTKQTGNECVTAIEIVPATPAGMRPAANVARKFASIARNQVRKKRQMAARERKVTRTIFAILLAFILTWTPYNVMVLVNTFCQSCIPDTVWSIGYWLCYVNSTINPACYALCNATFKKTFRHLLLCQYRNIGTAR
Description: as §1

M4 mAChR Q184A = target: T3, M4 mAChR Q184A (Homo sapiens, UniProt P08173, Q184A); test: [3H]-NMS radioligand dissociation binding, M4 mAChR Q184A; set-up: unit not given here
T3 construct: expressed in transfected cells
T3 sequence (P08173 1-479 Q184A): T2 sequence (P08173 1-479 Y92A) with A92Y, Q184A
Description: as §1

[1] = + 10uM LY2033 (Allosteric Ligand), Time 0 min (Total Binding)
[2] = + 10uM LY2033 (Allosteric Ligand), Time 30 min
[3] = + 10uM LY2033 (Allosteric Ligand), Time 60 min
[4] = + 10uM LY2033 (Allosteric Ligand), Time 90 min
[5] = + 10uM LY2033 (Allosteric Ligand), Time 120 min
[6] = + 10uM LY2033 (Allosteric Ligand), Time 180 min
[7] = + 10uM LY2033 (Allosteric Ligand), Time 300 min

COc1nc2sc(C(=O)NC3CC3)c(N)c2c(C)c1Cl [LY2033298]
[3H]-NMS binding remaining (0 min = 100), MEAN (M1 mAChR WT; 10uM Atr + 30uM LY2033, 10 min): 100.177 | [3H]-NMS binding remaining (0 min = 100), MEAN (M1 mAChR WT; 10uM Atr + 30uM LY2033, 20 min): 95.7624 | [3H]-NMS binding remaining (0 min = 100), MEAN (M1 mAChR WT; 10uM Atr + 30uM LY2033, 40 min): 97.3513 | [3H]-NMS binding remaining (0 min = 100), MEAN (M1 mAChR WT; 10uM Atr + 30uM LY2033, 60 min): 85.8605 | [3H]-NMS binding remaining (0 min = 100), MEAN (M1 mAChR WT; 10uM Atr + 30uM LY2033, 90 min): 73.8671 | [3H]-NMS binding remaining (0 min = 100), MEAN (M1 mAChR WT; 10uM Atr + 30uM LY2033, 120 min): 62.858 | [3H]-NMS binding remaining vs Total Binding, MEAN (M4 mAChR Y92A; [1]): 100 | [3H]-NMS binding remaining vs Total Binding, MEAN (M4 mAChR Y92A; [2]): 108.824 | [3H]-NMS binding remaining vs Total Binding, MEAN (M4 mAChR Y92A; [3]): 96.2598 | [3H]-NMS binding remaining vs Total Binding, MEAN (M4 mAChR Y92A; [4]): 94.6146 | [3H]-NMS binding remaining vs Total Binding, MEAN (M4 mAChR Y92A; [5]): 83.2371 | [3H]-NMS binding remaining vs Total Binding, MEAN (M4 mAChR Y92A; [6]): 74.311 | [3H]-NMS binding remaining vs Total Binding, MEAN (M4 mAChR Y92A; [7]): 49.3255 | [3H]-NMS binding remaining vs Total Binding, MEAN (M4 mAChR Q184A; [1]): 100 | [3H]-NMS binding remaining vs Total Binding, MEAN (M4 mAChR Q184A; [2]): 89.0052 | [3H]-NMS binding remaining vs Total Binding, MEAN (M4 mAChR Q184A; [3]): 100.674 | [3H]-NMS binding remaining vs Total Binding, MEAN (M4 mAChR Q184A; [4]): 109.408 | [3H]-NMS binding remaining vs Total Binding, MEAN (M4 mAChR Q184A; [5]): 91.4218 | [3H]-NMS binding remaining vs Total Binding, MEAN (M4 mAChR Q184A; [6]): 88.0443 | [3H]-NMS binding remaining vs Total Binding, MEAN (M4 mAChR Q184A; [7]): 76.9832

C[N+](C)(C)CC#CCOC1=NOCC1 [iperoxo]
[3H]-NMS binding remaining (0 min = 100), MEAN (M1 mAChR WT; 10uM Atr + 10 μM Iperoxo, 10 min): 87.0617 | [3H]-NMS binding remaining (0 min = 100), MEAN (M1 mAChR WT; 10uM Atr + 10 μM Iperoxo, 20 min): 66.0557 | [3H]-NMS binding remaining (0 min = 100), MEAN (M1 mAChR WT; 10uM Atr + 10 μM Iperoxo, 40 min): 41.8921 | [3H]-NMS binding remaining (0 min = 100), MEAN (M1 mAChR WT; 10uM Atr + 10 μM Iperoxo, 60 min): 27.7899 | [3H]-NMS binding remaining (0 min = 100), MEAN (M1 mAChR WT; 10uM Atr + 10 μM Iperoxo, 90 min): 20.387 | [3H]-NMS binding remaining (0 min = 100), MEAN (M1 mAChR WT; 10uM Atr + 10 μM Iperoxo, 120 min): 14.5109

CCCCCCOc1nsnc1C1=CCCN(C)C1 [xanomeline]
[3H]-NMS binding remaining vs Total Binding, MEAN (M4 mAChR Y92A; +100uM Xano, Time 30 min): 84.6188 | [3H]-NMS binding remaining vs Total Binding, MEAN (M4 mAChR Y92A; +100uM Xano, Time 60 min): 76.9087 | [3H]-NMS binding remaining vs Total Binding, MEAN (M4 mAChR Y92A; +100uM Xano, Time 90 min): 63.0845 | [3H]-NMS binding remaining vs Total Binding, MEAN (M4 mAChR Y92A; +100uM Xano, Time 120 min): 54.6505 | [3H]-NMS binding remaining vs Total Binding, MEAN (M4 mAChR Y92A; +100uM Xano, Time 300 min): 15.7486 | effect on [3H]-NMS dissociation (in words) (M4 mAChR Y92A; M4 mAChR Y92A mutant): loss in xanomeline modulation | [3H]-NMS binding remaining vs Total Binding, MEAN (M4 mAChR Q184A; +100uM Xano, Time 30 min): 83.7482 | [3H]-NMS binding remaining vs Total Binding, MEAN (M4 mAChR Q184A; +100uM Xano, Time 60 min): 84.3012 | [3H]-NMS binding remaining vs Total Binding, MEAN (M4 mAChR Q184A; +100uM Xano, Time 90 min): 69.8323 | [3H]-NMS binding remaining vs Total Binding, MEAN (M4 mAChR Q184A; +100uM Xano, Time 120 min): 76.4651 | [3H]-NMS binding remaining vs Total Binding, MEAN (M4 mAChR Q184A; +100uM Xano, Time 180 min): 50.1077 | [3H]-NMS binding remaining vs Total Binding, MEAN (M4 mAChR Q184A; +100uM Xano, Time 300 min): 18.2224
